Where two headings read alike, the source gives them in different places.
How the values were obtained:
[1] = tested on: H. pylori infection; conditions: individuals undergoing antibiotic regimen for H. pylori infection; cited from earlier work
[2] = tested on: H. pylori infection; assay: Antibiotic therapy of H. pylori infection, response monitored by SIA; type: in vivo, Helicobacter pylori; conditions: individuals undergoing antibiotic regimen, determined with the SIA
Experimental: For the immunoblot assay, strips were processed in a batch fashion with 30 strips per batch. All steps were performed at room temperature. Each strip was numbered and then placed in a separate tube to which was added 1 ml of diluent (phosphate-buffered saline (PBS) with bovine protein stabilizers and detergents, 0.1% sodium azide and 0.05% gentamicin sulfate as preservatives) and 30 μl of a serum sample from an individual known to be infected with H. pylori Type I, suspected of being infected with H. pylori Type I or a control subject, was applied. The tubes were rocked gently for 4 h, the solution removed by aspiration, and 1 ml of fresh diluent was added to each tube. The tubes were rocked for 30 minutes, the solution removed by aspiration and 1 ml of wash buffer made from wash buffer concentrate (50×) (phosphate-buffered detergent solution with 0.01% thimerosal as a preservative) was added to each tube. The contents of each tube were emptied into a single wash vessel and the strips were washed by swirling for 20 seconds. The wash buffer was decanted and 30 ml of fresh buffer added and the process repeated. […] Strips were then read within 3 h of drying. […] The lysate and VacA and CagA bands are then scored from 0 to 4+according to how their band intensity compares to that of the IgG control bands. […]

[3] = tested on: H. pylori antibodies in serum sample; assay: H. pylori strip immunoblot assay (SIA), band reactivity of immobilized antigens with serum samples; type: binding, human; set-up: key: band intensity 0 to 4+ vs IgG controls (low IgG = 1+, high = 3+)
Experimental: A. An SIA was done as follows. An H. pylori extract containing a mixture of antigens including type-common antigens was obtained from Bioseed, Inc., Hillsborough, Calif. Briefly, the extract was prepared from an H. pylori bacterium obtained from the American Type Culture Collection (ATCC) having an ATCC strain designation of ATCC 43504. The extract was prepared using detergent extraction and sonication.
The VacA and CagA type-specific antigens, described in Examples 1 and 2, respectively, were applied in discrete bands to nitrocellulose strips at concentrations of 1-2 μg/ml. The lysate including the type-common antigens was coated as another discrete band at a concentration of 0.5-1 μg/ml onto the same nitrocellulose strips. As internal controls, additional bands contained purified human IgG at a low (100-185 ng/ml) and high (500-925 ng/ml) concentration. Other strips were coated with the antigens and lysate as described above, however, on these strips, the lysate was first enhanced with the VacA and CagA antigens added to the lysate at a concentration of 0.5-1 μg/ml (VacA) and 0.5-μg/ml (CagA). FIG. 1 is a diagram of a nitrocellulose strip with the antigens as described above.
For the immunoblot assay, strips were processed in a batch fashion with 30 strips per batch. All steps were performed at room temperature. Each strip was numbered and then placed in a separate tube to which was added 1 ml of diluent (phosphate-buffered saline (PBS) with bovine protein stabilizers and detergents, 0.1% sodium azide and 0.05% gentamicin sulfate as preservatives) and 30 μl of a serum sample from an individual known to be infected with H. pylori Type I, suspected of being infected with H. pylori Type I or a control subject, was applied. The tubes were rocked gently for 4 h, the solution removed by aspiration, and 1 ml of fresh diluent was added to each tube. The tubes were rocked for 30 minutes, the solution removed by aspiration and 1 ml of wash buffer made from wash buffer concentrate (50×) (phosphate-buffered detergent solution with 0.01% thimerosal as a preservative) was added to each tube. The contents of each tube were emptied into a single wash vessel and the strips were washed by swirling for 20 seconds. The wash buffer was decanted and 30 ml of fresh buffer added and the process repeated. Residual solution was removed by aspiration and 20 ml of conjugate solution (peroxidase-labeled goat anti-human IgG (heavy and light chains), with bovine protein stabilizers, containing 0.01% thimerosal as a preservative) was added. The vessel was rotated at 110 rpm for 10 minutes, the conjugate solution was decanted and the wash step was repeated three times. Residual solution was again removed by aspiration and 20 ml of substrate/developer (4-chloro-1-napthol in methanol/phosphate-buffered hydrogen peroxide) added, followed by rotation for 15-20 minutes at 110 rpm. The solution was decanted and the strips were washed twice in distilled water. Developed strips were placed face up on absorbent paper and allowed to dry for 30 minutes in the dark. Strips were then read within 3 h of drying. The intensity of the color of the H. pylori antigen bands were assigned values ranging from −(0) to 4+using the following algorithm. The low IgG band is assigned a value of 1+, the high IgG band is assigned a value of 3+. The lysate and VacA and CagA bands are then scored from 0 to 4+according to how their band intensity compares to that of the IgG control bands.
Samples with any of the H. pylori antigen bands scoring 1+ or greater to the lysate band are considered to be positive for H. pylori infection. Reactivity of 1+ or greater to the lysate band, in addition to reactivity of 1+ or greater to the CagA and/or VacA band, is considered positive for H. pylori Type I infection. Samples showing no reactivity of 1+ or greater to any bands are considered negative. […]

[4] = tested on: antibodies to CagA; conditions: cited from earlier work
[5] = Responder to antibiotic therapy, Prebleed

Molecule | Response Rate Reported [1] | % Responders by SIA [2] | Responders (responders/tested) by SIA [2] | Band reactivity (intensity value), therapy monitoring ([3]; Non-Responder, 8 M) | Band reactivity (intensity value), therapy monitoring ([3]; Non-Responder, 16 M) | Band reactivity (intensity value), therapy monitoring ([3]; Non-Responder, Prebleed) | Band reactivity (intensity value), therapy monitoring [3, 5] | Band reactivity (intensity value), therapy monitoring ([3]; Responder, 1 M) | Band reactivity (intensity value), therapy monitoring ([3]; Responder, 3 M) | Band reactivity (intensity value), therapy monitoring ([3]; Responder, 6 M) | Band reactivity (intensity value), therapy monitoring ([3]; Responder, 9 M) | Band reactivity (intensity value), therapy monitoring ([3]; Responder, 12 M) | patients CagA seropositive ([4]; patients suffering from gastric ulcer) | patients CagA seropositive ([4]; patients with duodenal ulcer or duodenitis)
Cc1ncc([N+](=O)[O-])n1CCO [Single, Metronidazole] | 19% | 20% | 1/5 | – | – | – | – | – | – | – | – | – | – | –
VacA: Recombinant 71.2 kDa fusion: 154 aa human SOD, five aa linker, VacA Gly-311 through Ile-819 of H. pylori CCUG17874 | – | – | – | 2.49 | 2.10 | 2.54 | 0.31 | 0.26 | 0.33 | 0.29 | 0.21 | 0.18 | – | –
CagA: Recombinant truncated CagA of 268 amino acids, 29.2 kDa, Glu-748 through Glu-1015, H. pylori strain Chetx-1 (protein, listed as Helicobacter pylori) MEFKNGKNKDFSKVTQAKSDLENSIKDVIFNQKITDKVDDLNQAVSVAKATGDFSRVEQALADLKNFSKEQLAQQAQKNESLNAGKKSEIYQSVKNGVNGTLVGNGLSQAEATTLSKNFSDIKKELNAKLFGNFNNNNNNGLKNSTEPIYAKVNKKKTGQVASPEEPIYTQVAKKVNAKIDRLNQIASGLGGVGKAAGFPLKRHDKVDDLSKVGRSVSPEPIYATIDDLGGPFPLKRHDKVDDLSKVGLSRNQELAQKIDNLNQAVSE | – | – | – | 0.99 | 0.90 | 1.31 | 1.92 | 1.69 | 1.09 | 0.90 | 0.73 | 0.43 | more than 70% | more than 95%
